Laboratory results taken from PubChem BioAssay AID1918931 (Molecular Pharmacology Branch, DTP, NCI, 2023).
Values joined by “and” are separate entries in the source; they are usually repeats but may differ in a detail not shown here. Equal values may be shown once.

Test system: 138582-337-R-J1-PDC complex spheroid viability
Assay: Anticancer human tumor 138582-337-R-J1-PDC patient-derived Merkel cell tumor cell line growth inhibition
Conditions: for viability, T/C: stronger effect = lower value; for IC50: curve of compound
Excerpt: Multicellular complex tumor spheroid response to LSD1 Inhibitor Iadademstat in combination with a variety of drugs and investigational agents in selected tumor cell lines
The current study was undertaken to assess response to LSD1 inhibitors in combination with standard-of-care drugs and investigational agents in solid tumor complex spheroid models as well as in the K-562 leukemia. Complex spheroids include a stromal component modeled by human endothelial cells (HUVEC) and fibroblasts modeled by human mesenchymal stem cells (MSCs). The concentration ranges selected for each drug and investigational agent were based upon clinically achievable concentrations if the clinical Cmax of the agent was known.
Compounds. The drugs and investigational agents used in this study are listed on Table 1. All of the agents used, including staurosporine (NSC755774) and gemcitabine (NSC613327), were obtained from the Developmental Therapeutics Program, NCI. FDA-approved anticancer drugs are available from the NCI at http://dtp.nci.nih.gov/branches/dscb/oncology_drugset_explanation.html. Drugs and investigational agents were >95% pure by proton nuclear magnetic resonance (NMR) and liquid chromatography/mass spectrometry (LC/MS). Stock solutions were prepared at 400x in DMSO, stored at -70 degrees C, and diluted in fresh medium prior to their use. The final concentration of DMSO in cell culture wells never exceeded 0.25% (v/v). The FDA-approved anticancer drug set is available from the Developmental Therapeutics Program at https://dtp.cancer.gov/organization/dscb/obtaining/available_plates.htm. All drugs and investigational agents were tested over a range starting from a high concentration at or near the clinical Cmax and decreasing in half-log increments. If the clinical Cmax for an agent had not been determined, the highest concentration tested was 10 microM.
Cell Lines. The patient-derived cancer cell (PDC) lines: 292921-168-R-J2-PDC, K24384-001-R-PDC, and 521955-158-R2-J5-PDC pancreatic carcinomas, 556581-035-R-J1 ovarian carcinoma, 324938-238-R-J1-PDC, 855422-203-R-J1-PDC and 883617-216-R-J1-PDC urothelial bladder carcinomas, 743489-274-T-PDC renal cell carcinoma, 138582-R-J1 Merkel cell tumor, K60290-347-R-J1 and K57222-313-R-J1-PDC glioblastomas, 653999-131-R-J2-PDC, LG0703-F948-PDC, and 349418-098-R-PDC non-small cell lung carcinomas, 885512-296-R-J2-PDC, 171881-019-R-J1-PDC breast carcinomas and 186277-243-T-J2-PDC and 233499-124-R-J2-PDC colon carcinomas were obtained from the NCI Patient-Derived Models Repository (PDMR, https://pdmr.cancer.gov). The established cell lines NCI/ADR-RES (RRID:CVCL_14520 and OVCAR-5 (RRID:CVCL_1628) ovarian carcinomas, 786-O (RRID:CVCL_1051) and A498 (RRID:CVCL_A498) renal cell carcinoma, NCI-H211 (ATCC, cat. CRL-5824; RRID:CVCL_1529), NCI-H196 (ATCC, cat. CRL-5823, RRID:CVCL_1509), SW 1271 (ATCC, cat. CRL-2177, RRID:CVCL_1716) and NCI-H1876 (ATCC, cat. CRL-5902, RRID:CVCL_1503) small cell lung carcinomas, MDA-MB-231 (RRID:CVCL_0062) and MDA-MB-468 (RRID:CVCL_0419)breast carcinomas (10-12). Pooled donor human umbilical vein endothelial cells (HUVEC, Lonza, cat. CC-2519) and human mesenchymal stem cells (hMSC, Lonza, cat. PT-2501) were purchased from Lonza (Walkersville, MD).
Cell Culture. All cells were maintained in an incubator at 37 degrees C and 5% CO2 with 95% humidity. The PDC lines were cultured according to standard operating procedures established by the NCI PDMR (https://pdmr.cancer.gov). Briefly all PDCs were thawed and cultured in Matrigel-coated flasks prepared with a working solution of 1X Ham's F-12 nutrient mix, without supplementation (Invitrogen, Waltham, MA, cat. 11765054), 100 U/mL penicillin-streptomycin (Invitrogen, cat. 15140122), and 2.5% Matrigel (Corning Inc., Corning, NY, cat. 354248) for the first three passages. […]
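Also: spheroids exposed to agents for 7 days.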
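For viability, T/C in this document: 100% = DMSO vehicle control viability.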

Compound | viability, T/C (compound 0.000316 µM) | viability, T/C (compound 0.00316 µM) | viability, T/C (compound 0.01 µM) | viability, T/C (compound 0.0316 µM) | viability, T/C (compound 0.1 µM) | IC50 | viability, T/C (compound 0.001 µM) | viability, T/C (compound 0.316 µM) | viability, T/C (compound 1 µM) | viability, T/C (compound 3.16 µM) | viability, T/C (compound 10 µM) | viability, T/C (compound 0.00949 µM) | viability, T/C (compound 0.03 µM) | viability, T/C (compound 0.0949 µM) | viability, T/C (compound 0.3 µM) | viability, T/C (compound 0.949 µM) | viability, T/C (compound 3 µM) | viability, T/C (compound 0.000949 µM) | viability, T/C (compound 0.003 µM)
CC(C)CC(NC(=O)C(Cc1ccccc1)NC(=O)c1cnccn1)B(O)O (centres undefined) | 116% and 74.5% | 0.75% and 0.32% | 0.21% and 0.23% | 0.25% and 0.21% | 0.37% and 0.28% | 0.922 nM and 0.463 nM |  |  |  |  |  |  |  |  |  |  |  |  | 
CC(C)CC(NC(=O)CNC(=O)c1cc(Cl)ccc1Cl)B1OC(=O)CC(CC(=O)O)(C(=O)O)O1 (centres undefined) | 105% and 94.4% | 110% and 91.3% | 30.4% and 42.1% | 4.94% and 1.75% | 0.38% and 0.44% | 7.41 nM and 8.3 nM | 102% and 99.3% |  |  |  |  |  |  |  |  |  |  |  | 
CC(C)c1c(-c2ccccc2)nc2c(C#N)c[nH]n2c1=O |  |  |  | 106% and 89.1% | 92.4% and 85.5% | > 10000 nM and 3700 nM |  | 92.8% and 89.8% | 97.1% and 71.4% | 84.7% and 52.7% | 85.2% and 40.5% |  |  |  |  |  |  |  | 
CC1(C)CCC(CN2CCN(c3ccc(C(=O)NS(=O)(=O)c4ccc(NCC5CCOCC5)c([N+](=O)[O-])c4)c(Oc4cnc5[nH]ccc5c4)c3)CC2)=C(c2ccc(Cl)cc2)C1 |  |  |  | 95.7% and 61.2% | 95.8% and 70.4% | > 10000 nM and 3560 nM |  | 89.5% and 69.6% | 101% and 73.5% | 101% and 55.5% |  |  |  |  |  |  |  |  | 
CC1COCCN1c1cc(-c2ccnn2C)c2ccnc(-c3ccn[nH]3)c2n1 (centres undefined) |  | 76.4% and 67.9% | 86.4% and 64.7% | 69.7% and 48.6% | 61% and 34.3% |  |  | 61% and 28.5% | 39.8% and 25.1% |  |  |  |  |  |  |  |  |  | 
CC1COCCN1c1cc(C2(S(C)(=N)=O)CC2)nc(-c2ccnc3[nH]ccc23)n1 (centres undefined) |  |  |  | 91.2% and 97.8% | 85.4% and 99.9% | 8040 nM and 2070 nM |  | 88.4% and 81.3% | 83.1% and 59.1% | 68.1% and 46.4% | 45.8% and 38.9% |  |  |  |  |  |  |  | 
CCN(c1cc(-c2ccc(CN3CCOCC3)cc2)cc(C(=O)NCc2c(C)cc(C)[nH]c2=O)c1C)C1CCOCC1 |  |  |  |  |  | > 3000 nM |  |  |  |  |  | 86.8% and 93.2% | 103% and 81.7% | 82.1% and 70.6% | 95.9% and 76.5% | 95.5% and 69.7% | 99.3% and 57.8% |  | 
CC[C@@]1(O)C(=O)OCc2c1cc1n(c2=O)Cc2cc3c(CN(C)C)c(O)ccc3nc2-1 | 91% and 92.2% | 77.7% and 62.7% | 83.7% and 57.4% | 95% and 57.3% | 85.6% and 47.7% | > 100 nM | 103% and 101% |  |  |  |  |  |  |  |  |  |  |  | 
CCc1c2c(nc3ccc(O)cc13)-c1cc3c(c(=O)n1C2)COC(=O)[C@]3(O)CC |  |  |  |  |  | 8.76 nM and < 0.949 nM |  |  |  |  |  | 48.7% and 26.2% | 11.6% and 0.27% | 0.5% and 0.83% | 0.52% and 0.33% |  |  | 71.5% and 50.2% | 68.2% and 39%
COc1cc(C2c3cc4c(cc3C(OC3OC5COC(C)OC5C(O)C3O)C3COC(=O)C23)OCO4)cc(OC)c1O (centres undefined) |  |  |  |  |  | > 3000 nM and 359 nM |  |  |  |  |  | 81.8% and 78.6% | 73.6% and 82.9% | 78% and 57.8% | 77.3% and 50.9% | 73.4% and 48.3% | 74.7% and 34.3% |  | 
COc1cc(Nc2ncc3c(n2)-c2ccc(Cl)cc2C(c2c(F)cccc2OC)=NC3)ccc1C(=O)O |  | 102% and 63.7% | 82.4% and 67.3% | 76.8% and 63.6% | 84.4% and 66.4% | > 1000 nM |  | 79.4% and 61.6% | 80.4% and 43.7% |  |  |  |  |  |  |  |  |  | 
